Drawing on ChEMBL document CHEMBL6120962, “New Mitochondria-Targeted Fisetin Derivative Compromises Mitophagy and Limits Survival of Drug-Induced Senescent Breast Cancer Cells” (J Med Chem, 2024), this text covers Activity for 1 compound.

Experiment [1] concerns MCF-10F. Put plainly: Induction of mitochondrial dysfunction in human MCF-10F cells assessed as decrease in spare respiratory capacity at 5 uM incubated for 6 hrs by real time analysis. It counts as functional, cell-based.
Another experiment has as its system ZR-75-30. In words: Induction of oxidative stress in tamoxifen-induced senescent human ZR-75-30 cells assessed as increase in mitochondrial SOD2 level at 1 to 5 uM incubated for 24 hrs by MitoSOX red superoxide indicator based fluorescence analysis. It counts as functional, cell-based. The note with it: dose 1-5 µM.
The subject of experiment [2] is MCF-10F. Put plainly: Induction of apoptosis in tamoxifen-induced senescent human MCF-10F cells assessed as assessed as phosphatidylserine externalization at 1 to 5 uM incubated for 24 hrs by Annexin V-FITC staining based flow cytometric analysis. The note with it: dose 1-5 µM. It counts as functional, cell-based. A general note: A flow cytometer gives signals particle by particle.

The target in experiment [3] is Apoptosis regulator Bcl-2 (Homo sapiens) (UniProt P10415). In words: Binding affinity to recombinant human Bcl-2 assessed as interaction by measuring decrease in chemiluminescence signal at 0.01 to 5 uM incubated overnight by dot-blot analysis. To be noted: dose 0.01-5 µM.
For the next experiment, the system named is T47D. Put plainly: Antitumor activity against ER-positive human T47D cells xenografted in Danio rerio embryo assessed as decrease in tumor size at 1 to 5 uM administered for 48 hrs by imaging analysis. It counts as functional, cell-based. To be noted: dose 1-5 µM.
Experiment [4] deals with HCC1428. Put plainly: Induction of apoptosis in tamoxifen-induced senescent human HCC1428 cells assessed as phosphatidylserine externalization at 1 to 5 uM incubated for 24 hrs by Annexin V-FITC staining based flow cytometric analysis. It counts as functional, cell-based. To be noted: dose 1-5 µM.
In experiment [5] the target is RAC-alpha serine/threonine-protein kinase (Homo sapiens) (UniProt P31749). In words: Binding affinity to recombinant human AKT (14 to 276 residues) assessed as interaction by measuring decrease in chemiluminescence signal at 0.01 to 5 uM incubated overnight by dot-blot analysis. To be noted: dose 0.01-5 µM.
The subject of experiment [6] is HCC1428. Put plainly: Induction of apoptosis in tamoxifen-induced senescent human HCC1428 cells assessed as decrease in AKT level at 1 to 5 uM incubated for 24 hrs by Western blotting analysis. It counts as functional, cell-based. To be noted: dose 1-5 µM. Background: Immunoblotting shows a protein as a band on a membrane.
Experiment [7] deals with MCF-10F. In words: Induction of apoptosis in human MCF-10F cells assessed as decrease in Bcl2 level at 1 to 5 uM incubated for 24 hrs by Western blot analysis. It counts as functional, cell-based. The note with it: dose 1-5 µM.
The next experiment concerns CAMA-1. In words: Induction of senescence in human CAMA-1 cells assessed as increase in IL-8 level at 5 uM incubated for 24 hrs by immunostaining based imaging cytometric analysis. It counts as functional, cell-based.
In experiment [8] the test system is MCF-10F. In words: Induction of mitochondrial dysfunction in tamoxifen-induced senescent human MCF-10F cells assessed as decrease in ATP production at 5 uM incubated for 6 hrs by real-time analysis. It counts as functional, cell-based.
Experiment [9] deals with HCC1428. In words: Induction of apoptosis in human HCC1428 cells assessed as decrease in Bcl2 level at 1 to 5 uM incubated for 24 hrs by Western blot analysis. It counts as functional, cell-based. To be noted: dose 1-5 µM.

SMILES strings stand for the structures. The source made the active and inactive calls. The calls are words filed in the database; no cut-off is given here.

Chain of RAC-alpha serine/threonine-protein kinase (Homo sapiens) (P31749 whole entry, the tested form may be a part): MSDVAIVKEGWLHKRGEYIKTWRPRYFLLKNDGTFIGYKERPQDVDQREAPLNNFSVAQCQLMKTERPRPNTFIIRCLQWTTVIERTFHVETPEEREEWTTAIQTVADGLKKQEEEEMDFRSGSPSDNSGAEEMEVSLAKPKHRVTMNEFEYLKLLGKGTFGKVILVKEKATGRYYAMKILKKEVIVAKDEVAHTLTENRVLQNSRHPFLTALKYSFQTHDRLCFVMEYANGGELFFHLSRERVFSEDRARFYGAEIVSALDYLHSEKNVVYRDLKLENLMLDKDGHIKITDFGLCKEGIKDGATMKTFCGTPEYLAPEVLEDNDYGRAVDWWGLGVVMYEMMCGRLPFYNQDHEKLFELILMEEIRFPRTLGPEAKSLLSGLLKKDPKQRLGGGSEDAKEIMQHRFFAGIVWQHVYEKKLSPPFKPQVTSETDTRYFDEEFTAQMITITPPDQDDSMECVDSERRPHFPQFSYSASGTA
Chain of Apoptosis regulator Bcl-2 (Homo sapiens) (P10415 whole entry): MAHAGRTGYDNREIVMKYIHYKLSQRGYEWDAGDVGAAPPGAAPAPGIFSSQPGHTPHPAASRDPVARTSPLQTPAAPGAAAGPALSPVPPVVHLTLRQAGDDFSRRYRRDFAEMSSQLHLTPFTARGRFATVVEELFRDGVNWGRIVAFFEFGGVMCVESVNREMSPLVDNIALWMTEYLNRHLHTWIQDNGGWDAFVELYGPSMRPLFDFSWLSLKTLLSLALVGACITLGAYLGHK

Regarding `CC(=O)Oc1ccc2c(=O)c(OCCCC[P+](c3ccccc3)(c3ccccc3)c3ccccc3)c(-c3ccc4c(c3)OC(c3ccccc3)(c3ccccc3)O4)oc2c1.[I-]`, the outcome in the experiment on MCF-10F [1], in the experiment with MCF-10F [7], in the experiment on CAMA-1 and in the experiment on MCF-10F [8] was inactive. For the same compound, the result (in the experiment with ZR-75-30; in experiment [3]; with T47D; in the experiment with HCC1428 [4]; in experiment [5]; in the experiment on HCC1428 [6]) was Active. Further, the outcome in the experiment with HCC1428 [9] was Active. Besides, the Activity entry in the experiment with MCF-10F [2] is “Active; Slight Effect Observed”.
